# Measured values: ChEMBL document CHEMBL1201862, “PubChem BioAssay data set” (2004)
#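 Where inhibition never reached the appropriate level, the endpoint shown equals the highest concentration tested. Otherwise, values were interpolated linearly from a five-concentration, 48-hour dose response in 96-well plates. GI50 is the concentration that inhibits growth by half.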 Activity calls are given as the source filed them. Cut-off read from the data, not from the text of the source: active = GI50 up to about 1.1 µM and inactive = higher.
# Experiments:
# Test in all cases: DTP human tumour cell line panel, 48 h
# HCC 2998 = system: HCC 2998
# SK-OV-3 = system: SK-OV-3
# IGROV-1 = system: IGROV-1
# SK-MEL-2 = system: SK-MEL-2
# PC-3 = system: PC-3
# HCT-15 = system: HCT-15
# Hs-578T = system: Hs-578T
# NCI/ADR-RES = system: NCI/ADR-RES
# U-251 = system: U-251
# ACHN = system: ACHN
# HT-29 = system: HT-29
# MDA-MB-435 = system: MDA-MB-435
# MOLT-4 = system: MOLT-4
# NCI-H522 = system: NCI-H522
# SNB-75 = system: SNB-75
# CAKI-1 = system: CAKI-1
SMILES,GI50 (HCC 2998),GI50 (SK-OV-3),GI50 (IGROV-1),GI50 (SK-MEL-2),GI50 (PC-3),GI50 (HCT-15),GI50 (Hs-578T),GI50 (NCI/ADR-RES),GI50 (U-251),GI50 (ACHN),GI50 (HT-29),GI50 (MDA-MB-435),GI50 (MOLT-4),GI50 (NCI-H522),GI50 (SNB-75),GI50 (CAKI-1)
CN1N=C(c2ccncc2)OC1c1ccccc1F (configuration not stated),> 100 µM (inactive),> 100 µM (inactive),> 100 µM (inactive),> 100 µM (inactive),> 100 µM (inactive),> 100 µM,> 100 µM (inactive),> 100 µM (inactive),> 100 µM (inactive),> 100 µM (inactive),> 100 µM (inactive),> 100 µM (inactive),> 100 µM (inactive),> 100 µM (inactive),,
O=[N+]([O-])c1ccc(Cl)c2c([N+](=O)[O-])cccc12,> 10 µM (inactive),2.28 µM (inactive),8.02 µM (inactive),8.34 µM (inactive),7.85 µM (inactive),2.77 µM,,,,,3.26 µM (inactive),3.1 µM (inactive),4.9 µM (inactive),,5.38 µM (inactive),
N#CC(C(=O)c1ccccc1F)c1nc2cc(C(F)(F)F)ccc2s1 (configuration not stated),,27 µM (inactive),36.3 µM (inactive),,,20.1 µM,,19.7 µM (inactive),26.7 µM (inactive),27.5 µM (inactive),17.6 µM (inactive),25.8 µM (inactive),31.1 µM (inactive),17.3 µM (inactive),14.6 µM (inactive),32.3 µM (inactive)
C=CCCCC1(C)CCCCNC1=O (configuration not stated),> 10 µM (inactive),> 10 µM (inactive),> 10 µM (inactive),> 10 µM (inactive),> 10 µM (inactive),> 10 µM,> 10 µM (inactive),> 10 µM (inactive),> 10 µM (inactive),> 10 µM (inactive),> 10 µM (inactive),> 10 µM (inactive),> 10 µM (inactive),,> 10 µM (inactive),> 10 µM (inactive)
COC([C@@H](OC(=O)c1ccccc1)[C@H](OC(=O)c1ccccc1)C(O)COC(=O)c1ccccc1)n1cc(C)c(=O)[nH]c1=O (some centres not stated),,40.6 µM (inactive),31.4 µM (inactive),25.7 µM (inactive),4.83 µM (inactive),27 µM,28.4 µM (inactive),28.6 µM (inactive),14.5 µM (inactive),31.6 µM (inactive),15.7 µM (inactive),20 µM (inactive),3.6 µM (inactive),20.4 µM (inactive),22.5 µM (inactive),
O=c1oc2ncccc2n1Cc1ccc([N+](=O)[O-])cc1,,> 100 µM (inactive),> 100 µM (inactive),> 100 µM (inactive),> 100 µM (inactive),> 100 µM,> 100 µM (inactive),> 100 µM (inactive),> 100 µM (inactive),> 100 µM (inactive),> 100 µM (inactive),> 100 µM (inactive),> 100 µM (inactive),> 100 µM (inactive),80.7 µM (inactive),> 100 µM (inactive)
CC1C2=C(O)CC(C)(C)CC2=NC2=C1C(=O)CC(C)(C)C2 (configuration not stated),> 100 µM (inactive),> 100 µM (inactive),> 100 µM (inactive),,> 100 µM (inactive),> 100 µM,> 100 µM (inactive),> 100 µM (inactive),> 100 µM (inactive),> 100 µM (inactive),> 100 µM (inactive),,> 100 µM (inactive),,83 µM (inactive),> 100 µM (inactive)
CN(C)C1(N(C)C)Oc2c(c(=O)n(C)c(=O)n2C)C(c2ccc(C(F)(F)F)cc2)C1(F)F (configuration not stated),> 100 µM (inactive),> 100 µM (inactive),,> 100 µM (inactive),> 100 µM (inactive),> 100 µM,,> 100 µM (inactive),> 100 µM (inactive),> 100 µM (inactive),,> 100 µM (inactive),,,> 100 µM (inactive),> 100 µM (inactive)
N=C(NCc1ccccc1)N/N=C\c1ccnc2ccccc12,2.1 µM (inactive),15.5 µM (inactive),,9.73 µM (inactive),15.6 µM (inactive),16 µM,18.8 µM (inactive),15.8 µM (inactive),15.6 µM (inactive),15.3 µM (inactive),11.2 µM (inactive),9.23 µM (inactive),12.6 µM (inactive),,8.04 µM (inactive),
Cc1ccc2c(c1)NC(c1ccc(C(=O)O)cc1)c1cccn1-2 (configuration not stated),,22.4 µM (inactive),,43.9 µM (inactive),32.7 µM (inactive),> 100 µM,,,30.9 µM (inactive),19.3 µM (inactive),78.3 µM (inactive),5.16 µM (inactive),64.1 µM (inactive),,18.7 µM (inactive),15.6 µM (inactive)
CC(=O)c1cc(C)n2c1CS[C@@H]2c1ccccc1,,> 100 µM (inactive),32.7 µM (inactive),98.9 µM (inactive),33.3 µM (inactive),31.3 µM,> 100 µM (inactive),50.1 µM (inactive),28.4 µM (inactive),68.2 µM (inactive),46.3 µM (inactive),27.3 µM (inactive),25.2 µM (inactive),30.2 µM (inactive),65.8 µM (inactive),70.5 µM (inactive)
CCn1c(-c2ccc(/N=N/Nc3ccc(-c4n[nH]c(=S)n4CC)cc3)cc2)n[nH]c1=S,,3.33 µM (inactive),3.09 µM (inactive),1.68 µM (inactive),2.75 µM (inactive),3.03 µM,3.15 µM (inactive),28.8 µM (inactive),2.57 µM (inactive),2.36 µM (inactive),3.55 µM (inactive),2.45 µM (inactive),2.17 µM (inactive),1.67 µM (inactive),2.79 µM (inactive),2.7 µM (inactive)
CCSC12OC3(CCCCCN3C1=O)C1C(=O)N(c3ccccc3)C(=O)C12 (configuration not stated),,> 100 µM (inactive),> 100 µM (inactive),> 100 µM (inactive),> 100 µM (inactive),> 100 µM,> 100 µM (inactive),> 100 µM (inactive),> 100 µM (inactive),> 100 µM (inactive),> 100 µM (inactive),> 100 µM (inactive),> 100 µM (inactive),> 100 µM (inactive),> 100 µM (inactive),> 100 µM (inactive)
COc1cccc([C@@H]2C/C(=N\NC(=O)C(=O)N[C@@H](C)c3ccccc3)c3cc4c(cc3N2)OCO4)c1,50.9 µM (inactive),> 100 µM (inactive),,85.9 µM (inactive),98.6 µM (inactive),27.4 µM,19.7 µM (inactive),13.9 µM (inactive),> 100 µM (inactive),> 100 µM (inactive),,2.28 µM (inactive),21 µM (inactive),,22.5 µM (inactive),48.1 µM (inactive)
COc1ccc2nccc(SCC(=O)O)c2c1,,,> 100 µM (inactive),> 100 µM (inactive),> 100 µM (inactive),> 100 µM,> 100 µM (inactive),> 100 µM (inactive),> 100 µM (inactive),> 100 µM (inactive),> 100 µM (inactive),> 100 µM (inactive),> 100 µM (inactive),> 100 µM (inactive),,> 100 µM (inactive)
O=C1CC(c2ccc(Cl)cc2)C2(C(=O)NC(=S)NC2=O)C(c2ccc(Cl)cc2)C1 (configuration not stated),25.8 µM (inactive),14.9 µM (inactive),,17.3 µM (inactive),20.1 µM (inactive),23.7 µM,30 µM (inactive),20.8 µM (inactive),29.2 µM (inactive),36.2 µM (inactive),16.9 µM (inactive),19.5 µM (inactive),25.5 µM (inactive),,15.1 µM (inactive),25.1 µM (inactive)
CC1(CCCCO)C=CC(S(=O)(=O)c2ccccc2)CC1 (configuration not stated),5.9 µM (inactive),10.8 µM (inactive),2.38 µM (inactive),11.1 µM (inactive),4.11 µM (inactive),3.69 µM,,2.59 µM (inactive),6.95 µM (inactive),5.57 µM (inactive),1.82 µM (inactive),9.42 µM (inactive),3.15 µM (inactive),1.87 µM (inactive),1.46 µM (inactive),10.7 µM (inactive)
COC1(CC[C@@H](C)COC2OC(CO)C(O)C(O)C2O)OC2C[C@H]3[C@@H]4CC[C@H]5C[C@@H](OC6OC(CO)C(OC7OC(CO)C(O)C(O)C7O)C(O)C6OC6OC(C)C(O)C(O)C6O)[C@H](O)C[C@]5(C)[C@H]4CC[C@]3(C)C2[C@@H]1C (some centres not stated),1.7 µM (inactive),1.87 µM (inactive),1.74 µM (inactive),2.12 µM (inactive),1.87 µM (inactive),,2.52 µM (inactive),,1.87 µM (inactive),1.77 µM (inactive),2.19 µM (inactive),1.84 µM (inactive),2.58 µM (inactive),2.2 µM (inactive),1.77 µM (inactive),2.01 µM (inactive)
CCOC(=O)CSc1[nH]c2nc(C)nc(Cl)c2c1C#N,> 10 µM (inactive),> 10 µM (inactive),> 10 µM (inactive),,> 10 µM (inactive),> 10 µM,,,,,> 10 µM (inactive),> 10 µM (inactive),> 10 µM (inactive),,> 10 µM (inactive),> 10 µM (inactive)
COc1cc(/C=C2/SC(c3ccccc3)N(c3cc(Cl)ccc3Cl)C2=O)cc(OC)c1OC (configuration not stated),> 100 µM (inactive),> 100 µM (inactive),44.9 µM (inactive),> 100 µM (inactive),65.5 µM (inactive),50.6 µM,,64.4 µM (inactive),63.4 µM (inactive),> 100 µM (inactive),> 100 µM (inactive),22.3 µM (inactive),> 100 µM (inactive),47.1 µM (inactive),45.1 µM (inactive),23.2 µM (inactive)
